Reference: patent US20240335497A1, “PULSE PROTEIN-BASED COMPOSITION FOR ACTIVATING THE SYNTHESIS OF FGF19” (ROQUETTE FRERES, priority 2021, published 2024)

System: FGF19
Assay: Expression of FGF19 mRNA in HT29 cells by RT-qPCR
Assay type: cell-based, human
Settings: 6 h; for increase of expression of the FGF19 gene compared to control (carrier=DMSO): Example 5, HT29 cells; for increase of expression of the FGF19 gene compared with control (carrier=DMSO): Example 6, HT29 cells
From the text: For cell cultures, the HT29 (ECACC 91072201), HT29-MTX and Caco-2 lines derived from a human colorectal adenocarcinoma are used, conventionally used as cell lines representative of human enterocytes. The cells are systematically cultured in Dulbecco's Modified Eagle Medium (DMEM): 4.5 g/L of glucose supplemented with 1% of sodium pyruvate, 1% of penicillin-streptomycin and 10% of decomposed fetal-bovine serum (FBS) (Eurobio, Les Ulis, France). For the 12-well and 96-well plate experiments, the HT29 cells were seeded with a density of 7.5×10^4 cells/cm^2 with a medium changed every 2 days and the cells were exposed to different experimental conditions 2 days after confluence with a depleted complete medium in FBS. For the 12-well plates (Costar®, Cambridge, MA), Caco-2 and HT29-MTX cells were seeded in a ratio of 1:1 with a density of 2.5×10^4 cells/cm^2. The cells were cultured for 14 days in a complete medium to allow differentiation. The medium was changed in the two compartments every two days until exposure to the complete medium was depleted in the FBS. The integrity of the cellular monolayer was evaluated by measuring the transepithelial electrical resistance (TEER) using a Millicell-ERS (Millipore Corp., Billerica, MA). The cell culture was sourced from Dutscher (Issy-les-Moulineaux, France), unless specified otherwise.
The various conditions of the carrier as PD were dissolved in PBS and the agonists were dissolved in DMSO. After exposure, the cell supernatants were stored at −80° C. for the measurements of the secretion of FGF19 proteins, and the cell monolayers were maintained at −80° C. until total extraction of the RNA.
The effect of this exposure is measured by quantifying the messenger RNA of the FGF19 using the following protocol: the expression of the target genes was evaluated by quantifying their mRNA level in the cells by RT-qPCR. The total RNA was isolated using the TRI-Reagent solution (Sigma Aldrich). First-strand complementary DNA was synthesized from 1 μg of total RNA using the TAKARA Prime ScriptMC RT reagent kit (TAKARA Bio, Saint-Germain-en-Laye, France). The qPCR tests were carried out using the SYBR® Premix Ex-Taq™ kit (TAKARA Bio) on Rotor-Gene™ 6000 (Corbet Research, Mortlake, Australia). The mRNA levels of the human TATA binding protein (TBP) were used to normalize the data.
[FIG. 1] summarizes the results obtained. The HT29 cells were exposed to the various PDs alone or in combination with an FXR agonist to determine their potential capacity to increase the expression of the FGF19 gene. […]
The capacity of the RQ3 and RQ7 digestates to increase the level of expression of the FGF19 mRNA and also the production and secretion of proteins was then evaluated. […]

Structure (SMILES): CC(C)c1onc(-c2c(Cl)cccc2Cl)c1COc1ccc(C=Cc2cccc(C(=O)O)c2)c(Cl)c1 [GW4064, 3-(2,6-Dichlorophenyl)-4-(3′-carboxy-2-chlorostilben-4-yl)oxymethyl-5-isopropylisoxazole]
- increase of expression of the FGF19 gene compared to control (carrier=DMSO) (GW4064 0.1 μM alone): 2 times
- increase of expression of the FGF19 gene compared to control (carrier=DMSO) (GW4064 1 μM alone): 6.2 times
- increase of expression of the FGF19 gene compared with control (carrier=DMSO) (GW4064 0.1 μM alone): 2.3 times
- increase of expression of the FGF19 gene compared with control (carrier=DMSO) (GW4064 1 μM alone): 6.6 times
